Assays:
purified human TFH cells = assay: TFH stimulation: viability and cytokine expression; format: cell-based
Source text: FIG. 6A-I. Increased TFH cell recruitment supports to HVEM deficient lymphoma B cells. FIG. 6A, FACS identification and sorting of human GC derived TFH cells based on the markers CD3pos, CD4pos, CD25neg, PD1hi, CXCRShi, left: isotypic control; right; staining with anti-BTLA antibody; FIG. 6B and FIG. 6C, FACS measurement (FIG. 6B) and quantification (FIG. 6C) of intra-tumoral TFH cells in control and HVEM deficient murine lymphomas; FIG. 6D and FIG. 6E, qRT-PCR measurement of IL21 (FIG. 6D), and IL4 (FIG. 6E) in sorted intra-tumoral T cells (N=?); FIG. 6F, qRT-PCR measurement of the LTa, LTb, and TNFa mRNA expression in T cells isolated from the spleens of vector and shHVEM mice * p<?; G-I, qRT-PCR measurement of TNFa (FIG. 6G), LTa (FIG. 6H), and LTb (FIG. 61) in cell sorted TFH (n=4) cultured with anti-CD3/anti-CD28 Mabs in presence or not of soluble HVEM (solHVEM, 10 μg/ml), each symbol represents an independent TFH sample.
FIG. 13A-E. Analysis of TFH cell function in HVEM deficient lymphomas. FIG. 13A and FIG. 13B, qRT-PCR measurement of the receptors for IL21 (IL-21ra; A), and IL4 (IL4ra; B) in purified lymphoma B cells; FIG. 13C, Viability of purified murine TFH cells (samples: n=4) that were cultured for 3 days with or without (UN) stimulation by anti-CD3/anti-CD28 in the presence or absence of the soluble HVEM ectodomain (solHVEM: 10 μg/ml); FIG. 13D, Cell-Sorted GC-TFH cultured with anti-CD3/anti-CD28 Mabs in presence or not of solHVEM; production of CXCL13(FIG. 13E) and IL-21(FIG. 13F) evaluated by ELISA.
The stroma-derived cytokine CXCL13 is the main chemo-attractant for CXCRSpos follicular T helper cells (TFH) (Crotty, 2014). […] This increase in TFH cell numbers is associated with an elevated expression of the TFH derived cytokines. […] Further, it was observed that the increased production of IL21 and IL4 by TFH cells was matched with an elevated expression of the IL21 and IL4 receptors on FACS purified lymphoma B cells from HVEM deficient lymphomas (p<0.01) (FIGS. 13A and 13B). Human TFH cells are characterized by high-level expression of the BTLA receptor (FIG. 13C) and experiments were performed to test whether HVEM directly affected these tumor infiltrating T cells. […]
Purified TFH were cultured in IMDM 10% FCS with or without anti-CD3 (0.6 μg/mL) and anti-CD28 (0.6 m/mL, Pelicluster Sanquin) MAbs in the presence or not of solHVEM (10 μg/mL). After 3 days of culture, the number of viable TFH was evaluated by flow cytometry using count beads (Flow Count, Beckman Coulter) and Topro-3 staining (Invitrogen). CXCL13 was quantified in culture supernatants by ELISA (R&D Systems) according to manufacturer's instructions.

[1] = tested on: MYC/BCL2 double positive murine lymphoma cells; assay: In vivo treatment of engrafted myc-bcl2 murine lymphomas by intratumoral injection; design: species or system J:Nu nude mice
Protocol: FIG. 7A-H. The solHVEM (either Leu39-Va1202 or Pro37-Va1202) protein restores tumor suppressive effects of HVEM.
FIG. 20. sTNFRSF14 inhibits tumor growth in vivo. Xenograft myc-bc12 lymphomas were grown in the flanks of mice. When the tumors reached a volume of approximately 0.5 cm^3 mice were treated every other day by intra-tumoral injection in the flanks with 20 ug/ml of sTNFRSF14diluted in PBS. The control (vehicle) animals were treated with PBS. Tumors were weighed and volumes were measured twice weekly.
FIG. 21. sTNFRSF14 decreases lymphoma growth in a xenograft model. 5 million myc-Bcl2 cells were mixed with Matrigel and injected subcutaneously into the flanks of mice J:Nu Nude (Foxn1 nu/Foxn1 nu) mice. Animals were sacrificed according to IUCAC protocols. Upon sacrifice tumors were weighed and measured.
FIG. 22. Exogenous administration of sTNFRSF14 suppresses mouse lymphoma xenografts. Animals were sacrificed on day day 11 and the xenografted tumors were excised from the flanks of the mice. The tumors from each flank—treated (sTNFRSF14) and untreated (vehicle) were weighed. Bars represent the average of n=4 mice.
FIG. 24. Immunohistochemical analysis of xenograft tumors. Pathological analysis of sTNFRSF14 treated and vehicle treated mouse lymphomas. Tumors were excised from the flanks of the animals and fixed in 4% paraformaldehyde overnight. The tumors were sectioned and stained via IHC for particular tumor markers. Representative staining for HE, TUNEL, and Ki67 is shown.
Building on these findings, experiments were performed to test whether solHVEM would have any single agent activity against lymphomas. First, the expression of the BTLA receptor was characterized across a panel of human and mouse lymphoma (mostly DLBCL) cell lines. […] Next, experiments were performed to test if solHVEM had any effect on established BTLA^hi lymphomas in vivo. Briefly, aggressive MYC/BCL2 double positive murine lymphoma cells that express BTLA (BTLA^hi) were transplanted into the flanks of J:Nu nude mice and mice were treated with 20 μg of solHVEM or vehicle (PBS) every three days for a total four times once the engrafted tumors reached a volume of ˜50 mm3. […] Similar results were obtained both in vitro and in vivo with a different soluble HVEM molecule consisting of the extracellular region from amino acids Pro37 to Va1202 (SEQ ID NO. 6).
Transplant and treatment studies were generated as previously described (Schatz et al., 2011). In summary, subcutaneous injection of one million myc-bcl2 mouse lymphoma cells combined with Matrigel (BD) in the right and left flanks of mice J:Nu Nude (Foxn1 nu/Foxn1 nu). Once tumors reached 75-mm3 mice were treated every three days by intra tumor injection with 20 m of sHVEM diluted in PBS (right flank) or with vehicle control (left flank). Tumor sizes were measured and recorded every three days. Tumors were weighed after the animals were sacrificed and tumors excised.
To study the effects of the sTNFRSF14 polypeptide in vivo, five (5) million myc-bc12 cells were injected into both the right and left flanks of nude mice. Upon formation of palpable tumors treatment was commenced. The treatment comprise injecting mice intra-tumorally with either 20 ug of sTNFRSF14 on the right flank or vehicle on the left flank.

[2] = with or without anti-CD3/anti-CD28, solHVEM 10 μg/mL, 3 days
[3] = 20 μg intratumoral every three days
[4] = compared to vehicle-treated tumors

solHVEM: Leu39-Val202 soluble HVEM ectodomain polypeptide of SEQ ID NO. 8
expression of LTa in TFH cells (purified human TFH cells; solHVEM 10 μg/ml): reductions | expression of LTb in TFH cells (purified human TFH cells; solHVEM 10 μg/ml): reductions | TFH cell numbers (purified human TFH cells; [2]): did not affect | TFH cell viability (purified human TFH cells; [2]): did not affect | ERK inhibition in tumors by immunoblot [1, 3]: ERK inhibition | apoptosis by TUNEL stain in tumors [1, 3]: abundant apoptosis | tumor growth ([1]; 20 μg intratumoral every three days, four times, n=4, p<0.01): prevented any further tumor growth

B1: sTNFRSF14: Pro37-Val202 soluble HVEM ectodomain polypeptide of SEQ ID NO. 6 (protein, listed as Homo sapiens)
chain: PALPSCKEDEYPVGSECCPKCSPGYRVKEACGELTGTVCEPCPPGTYIAHLNGLSKCLQCQMCDPAMGLRASRNCSRTENAVCGCSPGHFCIVQDGDHCAACRAYATSSPGQRVQKGGTESQDTLCQNCPPGTFSPNGTLEECQHQTKCSWLVTKAGAGTSSSHWV
tumor growth ([1]; 20 ug intra-tumoral, right flank, vehicle left flank): near complete growth delay | tumor weight ([1]; 11 days after treatment initiation, average, 20 ug intra-tumoral): 0.75 grams | TUNEL staining in tumors [1, 4]: higher levels | levels of phosphorylated ERK in tumors [1, 4]: reduced levels | proliferation marker Ki67 in tumors [1, 4]: decrease
